From the OligoGym collection
HELM strings list units from the 5' end as sugar, base in round brackets, then linkage (d deoxyribose, r ribose, m 2'-O-methyl, p phosphodiester). Strings are as the collection lists them; they lack the last nucleoside at the 3' end of the tested compound. [moe] = 2'-O-(2-methoxyethyl) (MOE); [sp] = phosphorothioate linkage; [m5C] = 5-methylcytosine

Molecular target: PRNP
Assay: mouse, dose not given
Details: ASO

Substance	3 h FOB score [score 0-7]
RNA1{[moe](A)[sp].[moe](T)p.[moe](G)p.[moe](T)p.[moe](T)[sp].d(A)[sp].d([m5C])[sp].d(A)[sp].d(G)[sp].d(T)[sp].d(T)[sp].d(A)[sp].d(T)[sp].d(G)[sp].d(T)[sp].[moe](T)p.[moe]([m5C])p.[moe](A)[sp].[moe]([m5C])}$$$$ (last 3' nucleoside missing)	2.5
RNA1{[moe](A)[sp].[moe](T)p.[moe](G)p.[moe](T)p.[moe](T)[sp].d(T)[sp].d(T)[sp].d([m5C])[sp].d([m5C])[sp].d(A)[sp].d(G)[sp].d(T)[sp].d(G)[sp].d([m5C])[sp].d([m5C])[sp].[moe]([m5C])p.[moe](A)p.[moe](T)[sp].[moe]([m5C])}$$$$ (last 3' nucleoside missing)	5.75
RNA1{[moe](A)[sp].[moe](T)p.[moe](G)p.[moe]([m5C])p.[moe]([m5C])[sp].d(A)[sp].d([m5C])[sp].d(A)[sp].d(T)[sp].d(A)[sp].d(T)[sp].d(A)[sp].d(G)[sp].d(G)[sp].d(G)[sp].[moe](T)p.[moe]([m5C])p.[moe]([m5C])[sp].[moe](T)}$$$$ (last 3' nucleoside missing)	3
RNA1{[moe](A)[sp].[moe](T)p.[moe](T)p.[moe](T)p.[moe](A)[sp].d(G)[sp].d(G)[sp].d([m5C])[sp].d(T)[sp].d([m5C])[sp].d(T)[sp].d(T)[sp].d(T)[sp].d(T)[sp].d([m5C])[sp].[moe]([m5C])p.[moe](A)p.[moe](G)[sp].[moe](G)}$$$$ (last 3' nucleoside missing)	4.75
RNA1{[moe](A)[sp].[moe](T)p.[moe](T)p.[moe](T)p.[moe](A)[sp].d([m5C])[sp].d(T)[sp].d(T)[sp].d(T)[sp].d(T)[sp].d([m5C])[sp].d(A)[sp].d(G)[sp].d([m5C])[sp].d(T)[sp].[moe](G)p.[moe]([m5C])p.[moe]([m5C])[sp].[moe](T)}$$$$ (last 3' nucleoside missing)	3
RNA1{[moe](A)[sp].[moe](T)p.[moe](T)p.[moe](T)p.[moe](A)[sp].d([m5C])[sp].d(T)[sp].d([m5C])[sp].d(T)[sp].d(T)[sp].d(G)[sp].d(T)[sp].d(T)[sp].d(G)[sp].d(A)[sp].[moe](A)p.[moe]([m5C])p.[moe](A)[sp].[moe](G)}$$$$ (last 3' nucleoside missing)	3.75
RNA1{[moe](A)[sp].[moe](T)p.[moe](T)p.[moe](T)p.[moe](G)[sp].d(A)[sp].d(T)[sp].d(T)[sp].d(T)[sp].d([m5C])[sp].d(A)[sp].d(A)[sp].d(G)[sp].d(T)[sp].d([m5C])[sp].[moe]([m5C])p.[moe]([m5C])p.[moe](A)[sp].[moe](G)}$$$$ (last 3' nucleoside missing)	5.75
RNA1{[moe](A)[sp].[moe](T)p.[moe]([m5C])p.[moe](A)p.[moe](T)[sp].d(T)[sp].d(T)[sp].d(T)[sp].d(G)[sp].d([m5C])[sp].d([m5C])[sp].d(A)[sp].d(T)[sp].d(T)[sp].d(T)[sp].[moe](A)p.[moe](T)p.[moe]([m5C])[sp].[moe](T)}$$$$ (last 3' nucleoside missing)	3.25
RNA1{[moe](A)[sp].[moe]([m5C])[sp].[moe](T)p.[moe]([m5C])p.[moe](T)p.[moe](A)p.[moe](T)p.d(G)[sp].d(T)[sp].d(T)[sp].d(T)[sp].d(T)[sp].d([m5C])[sp].d([m5C])[sp].d(A)[sp].d(G)[sp].d(T)[sp].[moe](G)p.[moe]([m5C])}$$$$ (last 3' nucleoside missing)	4.25
RNA1{[moe](A)[sp].[moe]([m5C])p.[moe](A)p.[moe](A)p.[moe](T)[sp].d([m5C])[sp].d(T)[sp].d(G)[sp].d(T)[sp].d(T)[sp].d(G)[sp].d(T)[sp].d(G)[sp].d(G)[sp].d(T)[sp].[moe](T)p.[moe]([m5C])p.[moe](A)[sp].[moe](G)}$$$$ (last 3' nucleoside missing)	6.5
RNA1{[moe](A)[sp].[moe]([m5C])p.[moe](A)p.[moe](T)p.[moe](T)[sp].d(T)[sp].d(A)[sp].d(T)[sp].d(T)[sp].d(T)[sp].d([m5C])[sp].d(A)[sp].d(T)[sp].d(G)[sp].d(T)[sp].[moe](G)p.[moe]([m5C])p.[moe]([m5C])[sp].[moe](A)}$$$$ (last 3' nucleoside missing)	3
RNA1{[moe](A)[sp].[moe]([m5C])p.[moe](G)p.[moe](T)p.[moe]([m5C])[sp].d([m5C])[sp].d(A)[sp].d(T)[sp].d(T)[sp].d(T)[sp].d(T)[sp].d([m5C])[sp].d(T)[sp].d(G)[sp].d(T)[sp].[moe](G)p.[moe]([m5C])p.[moe](T)[sp].[moe](T)}$$$$ (last 3' nucleoside missing)	1.75
RNA1{[moe](A)[sp].[moe]([m5C])p.[moe](T)p.[moe](G)p.[moe](A)[sp].d(A)[sp].d(T)[sp].d(T)[sp].d(T)[sp].d(T)[sp].d([m5C])[sp].d(T)[sp].d([m5C])[sp].d(T)[sp].d([m5C])[sp].[moe]([m5C])p.[moe]([m5C])p.[moe](A)[sp].[moe](G)}$$$$ (last 3' nucleoside missing)	0
RNA1{[moe](A)[sp].[moe]([m5C])p.[moe](T)p.[moe](T)p.[moe](G)[sp].d(T)[sp].d([m5C])[sp].d(A)[sp].d(G)[sp].d(T)[sp].d(T)[sp].d(T)[sp].d(T)[sp].d(T)[sp].d([m5C])[sp].[moe]([m5C])p.[moe]([m5C])p.[moe]([m5C])[sp].[moe](A)}$$$$ (last 3' nucleoside missing)	1
RNA1{[moe](A)[sp].[moe]([m5C])p.[moe](T)p.[moe](T)p.[moe](G)p.[moe](T)p.d([m5C])[sp].d(A)[sp].d(G)[sp].d(T)[sp].d(T)[sp].d(T)[sp].d(T)[sp].d(T)[sp].d([m5C])[sp].d([m5C])[sp].[moe]([m5C])p.[moe]([m5C])[sp].[moe](A)}$$$$ (last 3' nucleoside missing)	0.25
RNA1{[moe](A)[sp].[moe]([m5C])p.[moe](T)p.[moe](T)p.d(G)[sp].d(T)[sp].d([m5C])[sp].d(A)[sp].d(G)[sp].d(T)[sp].d(T)[sp].d(T)[sp].d(T)[sp].d(T)[sp].[moe]([m5C])p.[moe]([m5C])p.[moe]([m5C])p.[moe]([m5C])[sp].[moe](A)}$$$$ (last 3' nucleoside missing)	2.5
RNA1{[moe](A)[sp].[moe]([m5C])p.[moe](T)p.[moe]([m5C])p.[moe](T)[sp].d(A)[sp].d(T)[sp].d(G)[sp].d(T)[sp].d(T)[sp].d(T)[sp].d(T)[sp].d([m5C])[sp].[moe]([m5C])p.[moe](A)p.[moe](G)[sp].[moe](T)}$$$$ (last 3' nucleoside missing)	4.5
RNA1{[moe](A)[sp].[moe]([m5C])p.[moe](T)p.[moe]([m5C])p.[moe](T)[sp].d(A)[sp].d(T)[sp].d(G)[sp].d(T)[sp].d(T)[sp].d(T)[sp].d(T)[sp].d([m5C])[sp].d([m5C])[sp].d(A)[sp].[moe](G)p.[moe](T)p.[moe](G)[sp].[moe]([m5C])}$$$$ (last 3' nucleoside missing)	2
